Results from patent publication US10064858B2, “Methods and compositions for treating bacterial infections with iron chelators” (THE UNITED STATES OF AMERICA, AS REPRESENTED BY THE …, priority 2011, dated 2018).
Like-named read-outs stand apart in the source and are kept apart here.

Legend:
Format in all cases: cell-based
Acinetobacter baumannii [1] = assay: MIC, CLSI microdilution (Tables 1 and 6)
Procedure: (§1) The minimal inhibitory concentration (MIC) of non-toxic iron chelators was determined against standard strains of MDR bacteria and clinical isolates according to the guidelines of the Clinical and Laboratory Standards Institute (CLSI).
(§2) Individual MICs were determined following the microdilution method recommended by CLSI in cationic-adjusted Mueller-Hinton Broth (CAMHB), or M9 media. […] Tests were performed in triplicate. MIC of iron chelators were determined for noscomial ESKAPE pathogens.
(§3) MIC were determined in CAMHB media as described above in Example 8.

E. coli [2] = assay: MIC, CLSI microdilution (Tables 1 and 6); details: Escherichia coli, Table 1, read-out: MIC of Iron Chelators
Procedure: as §1, §2, §3

K. pneumonia [3] = assay: MIC, CLSI microdilution (Tables 1 and 6); details: Klebsiella pneumoniae, Table 1, read-out: MIC of Iron Chelators
Procedure: as §1, §2, §3

P. aeruginosa [4] = assay: MIC, CLSI microdilution (Tables 1 and 6); details: Pseudomonas aeruginosa, Table 1, read-out: MIC of Iron Chelators
Procedure: as §1, §2, §3

S. aureus = assay: MIC, CLSI microdilution (Tables 1 and 6); details: Staphylococcus aureus, Table 1, read-out: MIC of Iron Chelators
Procedure: as §1, §2, §3

Acinetobacter baumannii [5] = assay: MIC in RPMI1640 media (Table 2)
Procedure: (§4) […] […] Tests were performed in triplicate. MIC of iron chelators were determined for noscomial ESKAPE pathogens.
(§5) This media is closer to the iron levels in the human body. MICs are in ug/mL.

E. coli [6] = assay: MIC in RPMI1640 media (Table 2)
Procedure: as §4, §5

K. pneumonia [7] = assay: MIC in RPMI1640 media (Table 2); details: Klebsiella pneumoniae
Procedure: as §4, §5

P. aeruginosa [8] = assay: MIC in RPMI1640 media (Table 2); details: Pseudomonas aeruginosa
Procedure: as §4, §5

[9] = system: clinical isolates of A. baumannii; assay: MIC for clinical isolates in CAMHB media (Table 3); details: Acinetobacter baumannii
Procedure: as §2

E. coli EC35218 = assay: Time-kill assay in CAMHB; details: CAMHB
Procedure: Reductions in colony forming units (CFU)/mL were determined over time (time-kill assay) after exposure to VK28 and deferiprone (DFP), the two iron chelators that performed best in MIC assays when compared to controls. To better represent the iron content found in the human body, MIC and time-kill assays were also determined in minimal media and tissue culture media. Time-Kill assays were performed as previously described in G. P. Neupane et al., “In vitro time-kill activities of ciprofloxacin alone and in combination with the iron chelator deferasirox against Vibrio vulnificus,” European Journal of Clinical Microbiology and Infectious Diseases, 407-410 (2010); and R. L. White, et al., “Comparison of Three Different In Vitro Methods of Detecting synergy: Time-Kill, Checkerboard, and E test,” Journal of Antimicrobial Agents and Chemotherapy, 1914-1918 (1996). Initial inocula, for example 1×10^6 CFU/mL or 1×10^7 CFU/mL were challenged with iron chelator with and/or without an antibiotic. Cells were allowed to grow in CAMHB at 37° C. for 24 hours. Time-kill results were analyzed by determining the change in log 10 numbers of CFU/ml at 0, 6, and 24 h, compared to counts at 0 h. Antimicrobials were considered bactericidal at the lowest concentration that reduced the size of the original inoculum by >3 log 10 CFU/ml (99.9%) over each of the time periods and were considered bacteriostatic if the inoculum's size was reduced by 0 to <3 log 10 CFU/ml.
In this example, time-kill assays were performed as described in Example 9 against different multi-drug resistant bacteria, namely E. coli and MRSA.
In this example, time-kill assays were performed as described in Example 9 using ApoL1 as the iron chelator against two different E. coli strains. […] Time-kill results were analyzed by determining the change in log 10 numbers of CFU/mL at 6 and 24 hours.
In this example, time-kill assays were performed as described in Example 9 using Apo6619 as the iron chelator in combination with Rifampin against E. coli 35718. […] Time-kill results were analyzed by determining the change in log 10 numbers of CFU/mL at 0, 5 and 24 hours.

[10] = 1.5 MIC ApoL1 in combination with ¾MIC rifampin

Which results are given for Cc1c(O)c(=O)ccn1C [ApoL1, 3-hydroxy-1,2-dimethyl-4(1H)-pyridone]?
MIC (Acinetobacter baumannii [1]; ATCC17978, ATCC 17978, Table 1, read-out: MIC of Iron Chelators): 125 µg/mL; MIC (Acinetobacter baumannii [1]; ATCC19606, ATCC 19606, Table 1, read-out: MIC of Iron Chelators): 125 µg/mL; MIC (E. coli [2]; ATCC35218, ATCC 35218): 500 µg/mL; MIC (E. coli [2]; ATCC43888, ATCC 43888 (0157:H7)): 500 µg/mL; MIC (K. pneumonia [3]; ATCC700603, ATCC 700603): 500 µg/mL; MIC (K. pneumonia [3]; BAA2146, BAA-2146): 250 µg/mL; MIC (P. aeruginosa [4]; ATCC27853, ATCC 27853): > 500 µg/mL; MIC (P. aeruginosa [4]; PAO1): 250 µg/mL; MIC (S. aureus; ATCC25923, ATCC 25923): > 500 µg/mL; MIC (S. aureus; ATCC 43300 (MRSA)): > 500 µg/mL; MIC (Acinetobacter baumannii [5]; ATCC17978, ATCC 17978, read-out: MIC of Iron Chelators): 64 µg/mL; MIC (Acinetobacter baumannii [5]; ATCC19606, ATCC 19606, read-out: MIC of Iron Chelators): 125 µg/mL; MIC (E. coli [6]; Escherichia coli, 35718, read-out: MIC of Iron Chelators): 500 µg/mL; MIC (E. coli [6]; Escherichia coli, ATCC43888, ATCC 43888 (0157:H7), read-out: MIC of Iron Chelators): 250 µg/mL; MIC (K. pneumonia [7]; ATCC700603, ATCC 700603, read-out: MIC of Iron Chelators): 250 µg/mL; MIC (K. pneumonia [7]; BAA2146, BAA-2146, read-out: MIC of Iron Chelators): 250 µg/mL; MIC (P. aeruginosa [8]; ATCC27853, ATCC 27853, read-out: MIC of Iron Chelators): 500 µg/mL; MIC (P. aeruginosa [8]; PAO1, read-out: MIC of Iron Chelators): 125 µg/mL; MIC ([9]; AB967, read-out: MIC of Iron Chelators): 250 µg/mL; MIC ([9]; AB2828, read-out: MIC of Iron Chelators): 500 µg/mL; MIC ([9]; AB3340, read-out: MIC of Iron Chelators): 250 µg/mL; MIC ([9]; AB3560, read-out: MIC of Iron Chelators): 500 µg/mL; MIC ([9]; AB3638, read-out: MIC of Iron Chelators): 250 µg/mL; MIC ([9]; AB3785, read-out: MIC of Iron Chelators): 250 µg/mL; MIC ([9]; AB3806, read-out: MIC of Iron Chelators): 500 µg/mL; MIC ([9]; AB3917, read-out: MIC of Iron Chelators): 250 µg/mL; MIC ([9]; AB3927, read-out: MIC of Iron Chelators): 250 µg/mL; MIC ([9]; AB4025, read-out: MIC of Iron Chelators): 250 µg/mL; MIC ([9]; AB4026, read-out: MIC of Iron Chelators): 250 µg/mL; MIC ([9]; AB4027, read-out: MIC of Iron Chelators): 250 µg/mL; MIC ([9]; AB4052, read-out: MIC of Iron Chelators): 250 µg/mL; MIC ([9]; AB4269, read-out: MIC of Iron Chelators): 250 µg/mL; MIC ([9]; AB4448, read-out: MIC of Iron Chelators): 250 µg/mL; MIC ([9]; AB4456, read-out: MIC of Iron Chelators): 250 µg/mL; MIC ([9]; AB4490, read-out: MIC of Iron Chelators): 250 µg/mL; MIC ([9]; AB4498, read-out: MIC of Iron Chelators): 250 µg/mL; MIC ([9]; AB4795, read-out: MIC of Iron Chelators): 250 µg/mL; MIC ([9]; AB4857, read-out: MIC of Iron Chelators): 250 µg/mL; MIC ([9]; AB4878, read-out: MIC of Iron Chelators): 250 µg/mL; MIC ([9]; AB4932, read-out: MIC of Iron Chelators): 500 µg/mL; MIC ([9]; AB4957, read-out: MIC of Iron Chelators): 125 µg/mL; MIC ([9]; AB4991, read-out: MIC of Iron Chelators): 250 µg/mL; MIC ([9]; AB5001, read-out: MIC of Iron Chelators): 125 µg/mL; MIC ([9]; AB5075, read-out: MIC of Iron Chelators): 250 µg/mL; MIC ([9]; AB5197, read-out: MIC of Iron Chelators): 250 µg/mL; MIC ([9]; AB5256, read-out: MIC of Iron Chelators): 250 µg/mL; MIC ([9]; AB5674, read-out: MIC of Iron Chelators): 250 µg/mL; MIC ([9]; AB5711, read-out: MIC of Iron Chelators): 250 µg/mL; reduction in CFU/mL (E. coli EC35218; [10]): greater than 3 log 10; time-kill effect (E. coli EC35218; [10]): bactericidal (considered bactericidal at the lowest concentration that reduced the size of the original inoculum by >3 log 10 CFU/ml (99.9%)); time-kill effect (E. coli EC35218; 1.5 MIC Iron Chelator alone): bacteriostatic (considered bacteriostatic if the inoculum's size was reduced by 0 to <3 log 10 CFU/ml)
